Read-outs that look alike come from different tables or passages of the source.
Key:
FLT3 = FLT3 (Homo sapiens, UniProt P36888); assay: FLT3 IC50 determination; assay type: biochemical
CHK2 = CHK2 (Homo sapiens, UniProt O96017); assay: CHK2 IC50 determination; assay type: biochemical
120-140 human kinases = assay: In vitro kinase profiling at 1 and 10 μM, ATP at Km; assay type: biochemical
IRAK 1 = IRAK 1 (Homo sapiens, UniProt P51617); assay: Kinase profiling at 1 μM: IRAK 1; assay type: biochemical
Chain of IRAK 1 (P51617 whole entry): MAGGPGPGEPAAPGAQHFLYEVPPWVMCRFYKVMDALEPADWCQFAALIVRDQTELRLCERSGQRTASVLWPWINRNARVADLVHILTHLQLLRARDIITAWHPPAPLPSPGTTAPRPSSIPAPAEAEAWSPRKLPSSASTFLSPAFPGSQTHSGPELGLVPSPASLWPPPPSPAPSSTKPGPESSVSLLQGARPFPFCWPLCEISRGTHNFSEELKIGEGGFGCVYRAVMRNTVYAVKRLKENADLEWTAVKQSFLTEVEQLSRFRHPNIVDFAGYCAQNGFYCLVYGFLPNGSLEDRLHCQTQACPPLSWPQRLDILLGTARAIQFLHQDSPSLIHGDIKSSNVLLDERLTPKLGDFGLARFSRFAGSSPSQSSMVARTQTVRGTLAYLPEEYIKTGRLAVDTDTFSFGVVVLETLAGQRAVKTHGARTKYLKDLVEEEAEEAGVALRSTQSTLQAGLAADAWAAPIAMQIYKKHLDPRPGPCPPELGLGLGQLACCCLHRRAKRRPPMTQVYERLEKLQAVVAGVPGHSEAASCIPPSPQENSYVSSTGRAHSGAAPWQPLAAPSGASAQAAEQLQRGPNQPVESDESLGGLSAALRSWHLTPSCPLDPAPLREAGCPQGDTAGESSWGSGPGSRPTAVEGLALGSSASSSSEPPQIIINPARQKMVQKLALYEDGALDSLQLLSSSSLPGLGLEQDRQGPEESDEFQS

TrKA = TrKA (Homo sapiens, UniProt P04629); assay: Kinase profiling at 1 μM: TrKA; assay type: biochemical
Chain of TrKA (P04629 33-796): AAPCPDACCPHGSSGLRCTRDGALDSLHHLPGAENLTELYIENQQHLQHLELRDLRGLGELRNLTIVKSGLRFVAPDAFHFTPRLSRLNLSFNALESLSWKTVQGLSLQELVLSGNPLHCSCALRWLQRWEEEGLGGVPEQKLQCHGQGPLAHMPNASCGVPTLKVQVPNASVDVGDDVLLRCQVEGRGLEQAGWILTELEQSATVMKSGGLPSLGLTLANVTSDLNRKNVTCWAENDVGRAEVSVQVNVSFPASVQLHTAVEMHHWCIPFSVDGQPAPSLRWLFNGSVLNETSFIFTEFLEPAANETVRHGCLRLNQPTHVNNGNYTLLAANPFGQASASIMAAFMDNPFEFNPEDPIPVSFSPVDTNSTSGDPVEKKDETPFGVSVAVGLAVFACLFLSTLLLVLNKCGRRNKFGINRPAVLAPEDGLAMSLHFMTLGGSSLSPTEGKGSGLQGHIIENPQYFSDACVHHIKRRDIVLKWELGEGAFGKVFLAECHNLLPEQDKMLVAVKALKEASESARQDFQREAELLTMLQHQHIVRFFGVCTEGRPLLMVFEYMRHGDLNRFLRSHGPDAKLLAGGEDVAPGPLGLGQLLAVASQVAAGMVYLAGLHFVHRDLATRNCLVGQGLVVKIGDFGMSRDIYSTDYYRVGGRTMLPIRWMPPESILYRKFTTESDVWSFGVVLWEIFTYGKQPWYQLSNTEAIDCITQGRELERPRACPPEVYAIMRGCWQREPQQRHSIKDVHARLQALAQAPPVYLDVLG

RSK = assay: Kinase profiling at 1 μM: RSK; assay type: biochemical, human
AMPK = assay: Kinase profiling at 1 μM: AMPK; assay type: biochemical, human
NUAK1 = NUAK1 (Homo sapiens, UniProt O60285); assay: Kinase profiling at 1 μM: NUAK1; assay type: biochemical
Chain of NUAK1 (O60285 whole entry): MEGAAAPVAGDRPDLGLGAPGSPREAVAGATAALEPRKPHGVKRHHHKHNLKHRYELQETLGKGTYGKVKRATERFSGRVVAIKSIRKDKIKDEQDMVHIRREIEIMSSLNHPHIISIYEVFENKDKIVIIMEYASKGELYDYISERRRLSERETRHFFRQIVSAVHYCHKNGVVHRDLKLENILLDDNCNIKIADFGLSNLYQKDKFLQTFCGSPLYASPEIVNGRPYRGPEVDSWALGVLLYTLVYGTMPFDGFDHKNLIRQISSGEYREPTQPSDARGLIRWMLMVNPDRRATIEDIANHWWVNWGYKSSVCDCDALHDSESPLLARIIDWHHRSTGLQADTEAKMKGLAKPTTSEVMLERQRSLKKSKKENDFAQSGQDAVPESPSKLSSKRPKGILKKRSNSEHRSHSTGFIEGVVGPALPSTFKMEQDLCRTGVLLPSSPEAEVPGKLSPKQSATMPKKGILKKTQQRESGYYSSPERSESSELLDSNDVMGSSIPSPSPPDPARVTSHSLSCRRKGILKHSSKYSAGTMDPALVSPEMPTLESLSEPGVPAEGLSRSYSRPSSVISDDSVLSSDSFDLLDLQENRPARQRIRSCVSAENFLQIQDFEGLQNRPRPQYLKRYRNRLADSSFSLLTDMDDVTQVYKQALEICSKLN

Aurora B = Aurora B (Homo sapiens, UniProt Q96GD4); assay: Kinase profiling at 1 μM: Aurora B; assay type: biochemical
Chain of Aurora B (Q96GD4 whole entry): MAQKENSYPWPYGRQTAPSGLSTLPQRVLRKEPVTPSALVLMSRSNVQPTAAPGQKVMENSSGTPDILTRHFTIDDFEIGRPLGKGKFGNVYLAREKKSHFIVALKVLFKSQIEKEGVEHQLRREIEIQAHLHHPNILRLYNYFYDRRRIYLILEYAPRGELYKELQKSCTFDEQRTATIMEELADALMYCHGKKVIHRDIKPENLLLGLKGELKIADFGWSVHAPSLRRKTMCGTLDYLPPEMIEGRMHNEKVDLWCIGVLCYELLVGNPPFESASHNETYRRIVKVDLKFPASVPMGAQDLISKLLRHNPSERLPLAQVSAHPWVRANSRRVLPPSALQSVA

MAP4K = assay: Kinase profiling at 1 μM: MAP4K; assay type: biochemical, human
CHK1 [1] = molecular target: T1, CHK1 (Homo sapiens, UniProt O14757); assay: Kinase profiling at 1 μM: CHK1; assay type: biochemical
T1 sequence (O14757 1-476): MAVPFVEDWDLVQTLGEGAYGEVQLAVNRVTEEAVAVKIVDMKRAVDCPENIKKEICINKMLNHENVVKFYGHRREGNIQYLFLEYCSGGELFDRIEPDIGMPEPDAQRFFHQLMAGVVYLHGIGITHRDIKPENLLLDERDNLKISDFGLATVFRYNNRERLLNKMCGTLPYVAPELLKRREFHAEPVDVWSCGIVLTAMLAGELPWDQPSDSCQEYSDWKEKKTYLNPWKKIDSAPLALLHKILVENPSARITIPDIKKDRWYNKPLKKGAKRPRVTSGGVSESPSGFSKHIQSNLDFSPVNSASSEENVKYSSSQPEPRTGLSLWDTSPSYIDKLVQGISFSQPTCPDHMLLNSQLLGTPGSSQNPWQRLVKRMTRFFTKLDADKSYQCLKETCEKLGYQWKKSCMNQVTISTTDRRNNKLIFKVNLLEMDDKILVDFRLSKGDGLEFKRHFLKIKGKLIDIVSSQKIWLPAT

CHK1 [2] = molecular target: T1, CHK1; assay: cell-based
CHK1 [3] = molecular target: T1, CHK1; assay: Cell-based ELISA for G2 checkpoint abrogation
CHK1 [4] = molecular target: T1, CHK1; assay: Cell-based ELISA for G2 checkpoint abrogation; remark: listed apart in the source
CHK1 [5] = molecular target: T1, CHK1; assay: Cell-based ELISA for G2 checkpoint abrogation; remark: listed apart in the source
[6] = system: HT29 colon carcinoma cells; assay: Cell cycle analysis; assay type: cell-based, human
[7] = system: SW620 colon carcinoma cell line; assay: Cell cycle analysis; assay type: cell-based, human
[8] = system: pS296, pS317 and pS345 CHK1; assay: Western blotting of CHK1 phosphorylation biomarkers in HT29 cells; assay type: cell-based, human; conditions: SN38, up to 5μM
[9] = Plasma pharmacokinetics in BALB/c mice; assay type: in vivo, mouse; conditions: for AUC0-∞ / peak plasma concentration: BALB/c mice
[10] = Plasma protein binding by ultra filtration; assay type: in vitro ADME; conditions: mouse
[11] = In vitro metabolism in male CD1 mouse microsomes; assay type: in vitro ADME; conditions: 10 μM, 30 minutes at 37°C, NADPH and UDPGA
HT29 xenografts = assay: HT29 xenograft growth delay, combination with gemcitabine; assay type: in vivo, mouse
HT29 tumors = assay: HT29 xenograft growth delay, combination with irinotecan; assay type: in vivo, mouse; conditions: for growth delay: HT29 tumors
Calu6 xenografts = assay: Calu6 xenograft growth delay, combination with gemcitabine; assay type: in vivo, mouse; conditions: for antitumor activity of each agent alone: CCT244747 75mg/kg p.o. or gemcitabine 100mg/kg i.v. alone
SW620 xenografts = assay: SW620 xenograft, combination with gemcitabine; assay type: in vivo, mouse; conditions: 75mg/kg p.o. with gemcitabine 100mg/kg i.v.
[12] = system: MYCN-driven neuroblastoma; assay: Single agent activity in TH-MYCN transgenic mouse model of neuroblastoma; assay type: in vivo
[13] = system: S296 CHK1 autophosphorylation; assay: Biomarker changes in HT29 xenografts; assay type: in vivo, mouse; conditions: 100 or 150mg/kg p.o. with gemcitabine 100mg/kg i.v., P<0.05
CDK1 [14] = molecular target: T2, CDK1 (Homo sapiens, UniProt P06493); conditions: versus CHK1
T2 sequence (P06493 whole entry, looked up): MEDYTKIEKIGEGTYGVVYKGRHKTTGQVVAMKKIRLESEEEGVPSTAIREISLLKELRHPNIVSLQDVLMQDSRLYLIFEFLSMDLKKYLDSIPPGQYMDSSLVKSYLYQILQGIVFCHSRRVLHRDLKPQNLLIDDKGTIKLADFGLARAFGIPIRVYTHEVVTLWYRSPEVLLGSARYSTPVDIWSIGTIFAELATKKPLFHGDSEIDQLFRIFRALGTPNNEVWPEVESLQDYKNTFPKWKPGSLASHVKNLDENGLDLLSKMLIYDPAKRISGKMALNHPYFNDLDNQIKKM

CHK1 [15] = molecular target: T1, CHK1; conditions: HT29
HT29 [16] = system: HT29
SW620 [17] = system: SW620
Calu6 [18] = system: Calu6
HT29 [19] = assay: cells; conditions: Homo sapiens, HT-29, 96 h
SW620 [20] = assay: cells; conditions: Homo sapiens, SW-620, 96 h
Calu6 [21] = assay: cells; conditions: Homo sapiens, Calu-6, 96 h
[22] = system: four human tumor cell lines; assay: cells
recombinant human CHK1 = recombinant human CHK1 (Homo sapiens, UniProt O14757); assay: biochemical
CDK1 [23] = molecular target: T2, CDK1; assay: biochemical
SW620 cells = assay: Contact time / scheduling study with gemcitabine in SW620
[24] = 0.5μM for 23h following etoposide 25μM × 1h
[25] = BALB/c, mouse, in vivo, po, 10 mg/kg

Chain of CHK2 (O96017 whole entry): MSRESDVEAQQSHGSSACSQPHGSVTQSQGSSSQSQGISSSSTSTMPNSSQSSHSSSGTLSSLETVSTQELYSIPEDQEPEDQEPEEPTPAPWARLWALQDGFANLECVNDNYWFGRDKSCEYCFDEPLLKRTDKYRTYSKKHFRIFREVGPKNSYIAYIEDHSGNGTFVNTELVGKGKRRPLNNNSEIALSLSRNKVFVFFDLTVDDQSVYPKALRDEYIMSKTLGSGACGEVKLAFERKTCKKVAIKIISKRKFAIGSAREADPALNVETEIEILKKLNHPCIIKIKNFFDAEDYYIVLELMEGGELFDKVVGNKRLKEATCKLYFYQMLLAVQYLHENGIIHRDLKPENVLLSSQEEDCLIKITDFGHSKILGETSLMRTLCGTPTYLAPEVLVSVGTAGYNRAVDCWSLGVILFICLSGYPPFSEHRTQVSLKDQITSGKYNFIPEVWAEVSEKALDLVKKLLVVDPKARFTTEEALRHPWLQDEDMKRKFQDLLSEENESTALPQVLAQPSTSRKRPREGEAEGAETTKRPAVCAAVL
Chain of FLT3 (P36888 27-993): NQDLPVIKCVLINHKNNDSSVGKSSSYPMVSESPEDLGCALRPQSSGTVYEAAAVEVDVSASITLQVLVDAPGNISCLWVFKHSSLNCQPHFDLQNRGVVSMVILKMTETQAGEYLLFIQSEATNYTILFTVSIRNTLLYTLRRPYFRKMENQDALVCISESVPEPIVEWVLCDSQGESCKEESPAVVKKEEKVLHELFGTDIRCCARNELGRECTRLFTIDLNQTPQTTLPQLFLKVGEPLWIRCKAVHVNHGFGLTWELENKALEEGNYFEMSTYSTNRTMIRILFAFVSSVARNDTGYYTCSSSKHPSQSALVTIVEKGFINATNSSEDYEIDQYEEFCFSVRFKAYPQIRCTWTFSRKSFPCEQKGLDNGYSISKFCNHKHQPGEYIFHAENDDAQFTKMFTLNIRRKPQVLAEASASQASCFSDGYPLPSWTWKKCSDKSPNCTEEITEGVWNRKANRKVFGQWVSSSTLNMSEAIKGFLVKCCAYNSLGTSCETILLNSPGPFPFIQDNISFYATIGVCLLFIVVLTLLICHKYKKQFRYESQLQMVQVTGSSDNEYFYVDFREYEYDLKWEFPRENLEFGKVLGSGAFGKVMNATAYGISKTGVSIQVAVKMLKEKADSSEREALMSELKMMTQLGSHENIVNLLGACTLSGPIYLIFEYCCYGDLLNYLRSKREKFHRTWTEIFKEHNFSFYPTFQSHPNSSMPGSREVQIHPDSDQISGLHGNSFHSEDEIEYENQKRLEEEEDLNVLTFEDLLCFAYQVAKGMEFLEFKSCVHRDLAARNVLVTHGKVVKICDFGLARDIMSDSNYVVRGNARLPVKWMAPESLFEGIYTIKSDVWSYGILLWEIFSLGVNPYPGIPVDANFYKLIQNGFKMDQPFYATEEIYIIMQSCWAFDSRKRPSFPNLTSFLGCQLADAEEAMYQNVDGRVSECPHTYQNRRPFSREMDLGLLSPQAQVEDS

COc1cc(Nc2cnc(C#N)c(O[C@H](C)CN(C)C)n2)ncc1-c1cnn(C)c1 [CCT244747]
IC50 (FLT3): 0.6 µM
selectivity against FLT3 (FLT3; versus CHK1): 75 fold
IC50 (CHK2): > 10 µM
selectivity against CHK2 (CHK2; versus CHK1): more than 1,000 fold
number of kinases with >50% inhibition (120-140 human kinases; 1μM, panel of 140 kinases): 8
number of kinases inhibited by ≥80% (120-140 human kinases; 10μM, total of 121 kinases): 9
inhibition at 1 µM (IRAK 1): > 50%
inhibition at 1 µM (TrKA): > 50%
inhibition (RSK): > 50%
inhibition (AMPK): > 50%
inhibition at 1 µM (NUAK1): > 50%
inhibition at 1 µM (Aurora B): > 50%
inhibition (MAP4K): > 50%
inhibition of CHK1 in kinase profiling (CHK1 [1]): marked inhibition
IC50 (CHK1 [2]): 0.17 ± 0.0058 µM
IC50 (CHK1 [3]): 0.044 ± 0.01 µM
IC50 (CHK1 [4]): 0.094 ± 0.066 µM
IC50 (CHK1 [5]): 0.029 to 0.17 µM
further cells accumulating in G2/M ([6]; 0.1μM with SN38 20nM × 24h): 33.8%
reduction of SN38-induced S-phase arrest ([6]; 0.1μM with SN38 20nM × 24h): 42.3%
increase in G1 [6, 24]: 9.6%
loss of G2/M cells [6, 24]: 30%
S' population (S-phase cells not incorporating BrdU) ([6]; 0.5μM for 23h following etoposide, increased from 1.2): 17.7%
effect alone on the cell cycle ([6]; alone, up to 0.5μM × 24h): minimal effects
S'-phase cells ([6]; increasing concentrations with SN38 20nM × 24h, increased from 5): 42.1%
effect alone on the cell cycle ([7]; alone, up to 1μM × 24h): minimal effects
increase in G1 ([7]; with gemcitabine 10nM × 24h): 4.4%
increase in S'-phase ([7]; with gemcitabine 10nM × 24h): 19%
reduction in S-phase ([7]; with gemcitabine 10nM × 24h): 28.8%
abolition of S317 and S345 CHK1 phosphorylation [8]: neither phosphorylation was completely abolished
AUC0-∞ ([9]; 10mg/kg i.v.): 3.93 μMh
peak plasma concentration ([9]; 10mg/kg i.v., at 5 min): 3.62 µM
AUC0-∞ ([9]; 10mg/kg oral): 2.43 μMh
peak plasma concentration ([9]; 10mg/kg oral): 0.98 µM
clearance ([9]; BALB/c, mouse, in vivo, 10 mg/kg): 6.2 L/h/kg
half-life ([9]; BALB/c, mouse, in vivo, iv, 10 mg/kg): 40.2 min
bioavailability [9, 25]: 62%
half-life [9, 25]: 55.2 min
fraction unbound at 1 h, 10 μM [10]: 0.244
microsomal metabolism [11]: 45%
growth delay (HT29 xenografts; 75mg/kg p.o. added to gemcitabine 100mg/kg i.v.): 11.4 days
antitumor effect alone (HT29 xenografts; 75mg/kg p.o. alone): minimal effect
difference in growth delay, combination versus gemcitabine alone (HT29 xenografts; P<0.001): 9.1 days
body weight loss (HT29 xenografts; combination with gemcitabine): minimal body weight loss
growth delay (HT29 tumors; 150mg/kg p.o. added to irinotecan 25mg/kg i.p.): 13.5 days
growth delay (HT29 tumors; 150mg/kg p.o. alone): 0.3 days
nadir of body weight loss (HT29 tumors; combination with irinotecan, day 10): 1.3%
growth delay (Calu6 xenografts; Calu6 xenografts, 75mg/kg p.o. added to gemcitabine 100mg/kg i.v.): 15.9 days
antitumor activity of each agent alone (Calu6 xenografts; Calu6 xenografts): minimal activity
increase in growth delay, combination versus gemcitabine alone (Calu6 xenografts; Calu6 xenografts, P<0.001): 8.7 days
nadir of body weight loss (Calu6 xenografts; combination with gemcitabine, day 8): 5.4%
antitumor activity combined with gemcitabine (SW620 xenografts): Modest activity
tolerability ([12]; TH-MYCN mice, 100mg/kg p.o. × 7 days): well tolerated with no drug-related morbidity
effect on tumor versus vehicle treated controls (final tumor weight) ([12]; TH-MYCN neuroblastoma, 100mg/kg p.o. × 7 days, P<0.001): significant tumor shrinkage
tumor volume reduction by MRI ([12]; TH-MYCN neuroblastoma, 100mg/kg p.o. × 7 days, one example tumor): 79%
post-treatment tumor volume (MRI) ([12]; TH-MYCN neuroblastoma, 100mg/kg p.o. × 7days, pre-treatment 1960mm^3): 417 mm^3
effect on gemcitabine induced S296 CHK1 autophosphorylation in vivo [13]: significantly decreased
selectivity against CDK1 (CDK1 [14]): more than 1,000 fold
therapeutic window (ratio of MIA and GI50) (CHK1 [15]): 21 fold
Potentiation Index (PI) (HT29 [16]; 5FU): 2.2±0.2 (n=3)
Potentiation Index (PI) (HT29 [16]; 5FdU): 9.6±1.2 (n=3)
Potentiation Index (PI) (HT29 [16]; CDDP): 1.8±0.32 (n=3)
Potentiation Index (PI) (HT29 [16]; Etop): 1.9±0.63 (n=4)
Potentiation Index (PI) (HT29 [16]; Gem): 8.5±1.6 (n=4)
Potentiation Index (PI) (HT29 [16]; IR +1h): 3.0±0.67 (n=4)
Potentiation Index (PI) (HT29 [16]; IR −1h): 3.9±0.32 (n=4)
Potentiation Index (PI) (HT29 [16]; SN38, SRB GI50 / Combination GI50): 1.9±0.14 (n=4)
Potentiation Index (PI) (SW620 [17]; 5FU): 4.9±0.8 (n=3)
Potentiation Index (PI) (SW620 [17]; 5FdU): 47±14 (n=3)
Potentiation Index (PI) (SW620 [17]; CDDP): 4.2±0.87 (n=3)
Potentiation Index (PI) (SW620 [17]; Etop): 4.9±2.2 (n=3)
Potentiation Index (PI) (SW620 [17]; Gem): 12.2±2.7 (n=5)
Potentiation Index (PI) (SW620 [17]; IR +1h): 4.9±1.6 (n=4)
Potentiation Index (PI) (SW620 [17]; IR −1h): 4.5±1.2 (n=4)
Potentiation Index (PI) (SW620 [17]; SN38): 2.6±0.6 (n=3)
Potentiation Index (PI) (MiaPaCa-2; Gem): 16±6.3 (n=5)
Potentiation Index (PI) (MiaPaCa-2; SN38): 5.0±0.82 (n=5)
Potentiation Index (PI) (Calu6 [18]; Gem): 5.6±0.96 (n=3)
Potentiation Index (PI) (Calu6 [18]; SN38): 1.4±0.24 (n=3)
GI50 (HT29 [19]): 0.62 ± 0.23 µM
GI50 (SW620 [20]): 3 ± 1.2 µM
GI50 (Calu6 [21]): 0.33 ± 0.051 µM
GI50 [22]: 0.33 to 3 µM
IC50 (recombinant human CHK1): 0.008 µM
IC50 (CDK1 [23]): > 10 µM

C[C@H](CN(C)C)Oc1nc(Nc2cc3cccc(Cl)c3cn2)cnc1C#N [SAR-020106]
enhancement of gemcitabine activity (SW620 cells; exposures <24h): minimal enhancement
continuous exposure giving maximum potentiation of gemcitabine cytotoxicity (SW620 cells; gemcitabine): ≥ 48 h

COc1cc([C@@H]2c3cc4c(cc3[C@@H](O[C@@H]3O[C@@H]5CO[C@@H](C)O[C@H]5[C@H](O)[C@H]3O)[C@H]3COC(=O)[C@H]23)OCO4)cc(OC)c1O [etoposide, reference compound]
cells in G2/M ([6]; etoposide 25μM × 1h, measured at 24h): 70.5%

Nc1ccn([C@@H]2O[C@H](CO)[C@@H](O)C2(F)F)c(=O)n1 [gemcitabine, reference compound]
growth delay (HT29 xenografts; gemcitabine alone 100mg/kg i.v. days 0, 7, 14): 2.3 days
antitumor activity of each agent alone (Calu6 xenografts; Calu6 xenografts): minimal activity

CCc1c2c(nc3ccc(OC(=O)N4CCC(N5CCCCC5)CC4)cc13)-c1cc3c(c(=O)n1C2)COC(=O)[C@]3(O)CC [irinotecan, reference compound]
growth delay (HT29 tumors; irinotecan alone 25mg/kg i.p. days 0, 4, 8): 6.9 days

— article PMC3474704 (Clinical cancer research : an official journal of the …, 2012)
